Data: ChEMBL document CHEMBL4480376, “Studies on spiro[4.5]decanone prolyl hydroxylase domain inhibitors” (Medchemcomm, 2019)
The source made the active and inactive calls. The calls are words filed in the database; no cut-off is given here.

Key:
[1] = biological target: Egl nine homolog 1 (Homo sapiens) (UniProt Q9GZT9); experiment: Inhibition of N-terminal His6-tagged truncated PHD2 (181 to 426 residues) (unknown origin) expressed in Escherichia coli BL21 DE3 using H1F1-alpha CODD as substrate preincubated for 15 mins followed by substrate addition and measured after 15 mins by mass spectrometry
[2] = biological target: Egl nine homolog 1 (Homo sapiens) (UniProt Q9GZT9); experiment: Inhibition of N-terminal His6-tagged truncated PHD2 (181 to 426 residues) (unknown origin) expressed in Escherichia coli BL21 DE3 using H1F1-alpha NODD as substrate preincubated for 15 mins followed by substrate addition and measured after 15 mins by mass spectrometry
[3] = biological target: T1, Lysine-specific demethylase 4A (Homo sapiens, UniProt O75164); experiment: Inhibition of KDM4A (unknown origin) using H3 K9Me3 (1 to 15 residues) as substrate
T1 sequence (O75164 whole entry): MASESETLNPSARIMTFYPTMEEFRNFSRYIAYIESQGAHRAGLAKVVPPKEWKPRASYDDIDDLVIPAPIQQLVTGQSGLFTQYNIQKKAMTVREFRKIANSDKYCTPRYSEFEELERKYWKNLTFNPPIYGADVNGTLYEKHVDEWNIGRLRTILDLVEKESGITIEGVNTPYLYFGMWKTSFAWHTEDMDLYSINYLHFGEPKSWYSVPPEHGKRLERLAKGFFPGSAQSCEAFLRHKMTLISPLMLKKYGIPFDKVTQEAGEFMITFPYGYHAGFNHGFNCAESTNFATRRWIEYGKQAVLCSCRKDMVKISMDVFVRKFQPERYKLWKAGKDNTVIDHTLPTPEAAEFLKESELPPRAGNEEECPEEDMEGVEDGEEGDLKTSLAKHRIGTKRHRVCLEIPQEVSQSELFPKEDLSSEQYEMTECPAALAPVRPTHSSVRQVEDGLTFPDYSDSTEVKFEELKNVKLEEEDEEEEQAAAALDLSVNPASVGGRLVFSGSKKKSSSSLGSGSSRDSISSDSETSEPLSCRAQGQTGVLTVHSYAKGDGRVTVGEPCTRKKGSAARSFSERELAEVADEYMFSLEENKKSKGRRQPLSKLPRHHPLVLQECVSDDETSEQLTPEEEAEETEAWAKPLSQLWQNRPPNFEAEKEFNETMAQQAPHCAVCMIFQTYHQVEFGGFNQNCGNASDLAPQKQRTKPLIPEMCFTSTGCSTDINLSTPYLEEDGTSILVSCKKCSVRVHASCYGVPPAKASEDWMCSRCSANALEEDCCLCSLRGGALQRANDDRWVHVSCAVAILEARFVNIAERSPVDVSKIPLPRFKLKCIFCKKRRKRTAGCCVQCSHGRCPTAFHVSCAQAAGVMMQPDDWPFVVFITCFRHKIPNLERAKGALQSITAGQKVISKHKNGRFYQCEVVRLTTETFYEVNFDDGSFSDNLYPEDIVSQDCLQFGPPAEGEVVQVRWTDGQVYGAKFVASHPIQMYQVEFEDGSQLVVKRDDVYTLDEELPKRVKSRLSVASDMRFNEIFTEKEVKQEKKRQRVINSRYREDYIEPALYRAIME

[4] = Inhibition of FIH (unknown origin) using HIF-1alpha CAD (D788 to L822 residues) as substrate; parameters: species or system Homo sapiens

Sequence of Egl nine homolog 1 (Homo sapiens) (Q9GZT9 2-426 limits assumed): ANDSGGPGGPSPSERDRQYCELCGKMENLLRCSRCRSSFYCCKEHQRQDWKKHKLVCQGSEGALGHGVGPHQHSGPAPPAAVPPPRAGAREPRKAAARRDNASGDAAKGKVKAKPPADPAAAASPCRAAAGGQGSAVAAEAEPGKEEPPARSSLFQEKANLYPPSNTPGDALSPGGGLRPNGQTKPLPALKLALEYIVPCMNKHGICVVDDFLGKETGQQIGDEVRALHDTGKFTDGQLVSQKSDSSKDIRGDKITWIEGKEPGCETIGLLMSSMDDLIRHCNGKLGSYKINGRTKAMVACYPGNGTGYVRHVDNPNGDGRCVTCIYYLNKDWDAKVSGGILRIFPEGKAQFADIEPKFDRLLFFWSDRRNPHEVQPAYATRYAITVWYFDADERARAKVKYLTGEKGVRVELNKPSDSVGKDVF

SMILES | inhibition [1] | inhibition [2] | IC50 [3] | IC50 [4]
O=C(Nc1ccc(-c2ccccc2)cc1)C1CCCN(Cc2ncccc2O)C1 (centres undefined) | inactive | inactive | – | –
Cn1ccnc1CN1CCC2(CC1)NC(=O)N(c1ccc(-c3ccccc3)cc1)C2=O | – | – | > 25 µM | > 25 µM
Cc1cccnc1CN1CCCC(C(=O)Nc2ccc(-c3ccccc3)cc2)C1 (centres undefined) | inactive | inactive | – | –
O=C(Nc1ccc(-c2ccccc2)cc1)C1CCN(Cc2ccccc2O)CC1 | inactive | inactive | – | –
O=C1N(c2ccc(-c3ccccc3)cc2)C(=O)C2(CCN(Cc3cccs3)CC2)N1c1ncccn1 | – | – | > 25 µM | > 25 µM
O=C(NCc1ccc(-c2ccccc2)cc1)C1CCN(Cc2ccccc2O)CC1 | inactive | inactive | – | –
Cc1cccnc1CN1CCC2(CC1)C(=O)N(c1ccc(-c3ccccc3)cc1)C(=O)N2c1cc(C(=O)O)ccn1 | – | – | > 25 µM | > 25 µM
O=C(Nc1ccc(-c2ccccc2)cc1)C1CCCN(Cc2ccccc2O)C1 (centres undefined) | inactive | inactive | – | –
Cc1cccnc1CN1CCC(C(=O)Nc2ccc(-c3ccccc3)cc2)CC1 | inactive | inactive | – | –
Cn1ccnc1CN1CCC2(CC1)C(=O)N(c1ccc(-c3ccccc3)cc1)C(=O)N2c1ncccn1 | – | – | > 25 µM | > 25 µM
O=C1N(c2ccc(-c3ccccc3)cc2)C(=O)C2(CCN(Cc3ncc[nH]3)CC2)N1c1ncccn1 | – | – | > 25 µM | > 25 µM
COc1ccnc(N2C(=O)N(c3ccc(-c4ccccc4)cc3)C(=O)C23CCN(Cc2ncccc2C)CC3)n1 | – | – | > 25 µM | 21.6 µM
Cc1cccnc1CN1CCC2(CC1)NC(=O)N(c1ccc(-c3ccccc3)cc1)C2=O | – | – | > 25 µM | > 25 µM
Cc1cccnc1CN1CCC2(CC1)C(=O)N(c1ccc(-c3ccccc3)cc1)C(=O)N2c1ncccn1 | – | – | – | > 25 µM
O=C1N(c2ccc(-c3ccccc3)cc2)C(=O)C2(CCNCC2)N1c1ncccn1 | – | – | > 25 µM | > 25 µM
O=C1N(c2ccc(-c3ccccc3)cc2)C(=O)C2(CCN(Cc3ccccc3O)CC2)N1c1ncccn1 | – | – | 12.3 µM | > 25 µM
COc1cccc(CN2CCC3(CC2)C(=O)N(c2ccc(-c4ccccc4)cc2)C(=O)N3c2ncccn2)n1 | – | – | > 25 µM | > 25 µM
Cc1cccnc1CN1CCC(C(=O)NCc2ccc(-c3ccccc3)cc2)CC1 | inactive | inactive | – | –
O=C(NCc1ccc(-c2ccccc2)cc1)C1CCN(Cc2ncccc2O)CC1 | inactive | inactive | – | –
O=C(Nc1ccc(-c2ccccc2)cc1)C1CCN(Cc2ncccc2O)CC1 | inactive | inactive | – | –
